Experimental data taken from ChEMBL document CHEMBL1132673, “Preparation and immunosuppressive activity of 32-(O)-acylated and 32-(O)-thioacylated analogues of ascomycin” (1999).

Columns and labels:
[1] = In vitro immunosuppressive activity measured in the interleukin-2 receptor gene assay (IL-2 RGA) in mitogen-stimulated human T-cell line; relative to FK506
[2] = organism: Mus musculus; assay: In vitro immunosuppressive activity measured in the mouse mixed lymphocyte reaction (MLR) expressed as relative inhibitory concentration (rIC50) relative to FK506 IC50 (0.3 nM); assay type: functional
[3] = biological target: Peptidyl-prolyl cis-trans isomerase FKBP1A (Homo sapiens) (UniProt P62942); assay: Immunosuppressive activity in FK506 binding protein 12 binding assay as inhibitory concentration (rIC50) relative to FK506 IC50 (1.2 nM)
Peptidyl-prolyl cis-trans isomerase FKBP1A (Homo sapiens), sequence (P62942 whole entry): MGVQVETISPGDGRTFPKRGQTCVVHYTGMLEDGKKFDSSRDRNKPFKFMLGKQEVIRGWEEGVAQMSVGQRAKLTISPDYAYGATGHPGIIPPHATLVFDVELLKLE

CC[C@@H]1/C=C(\C)C[C@H](C)C[C@H](OC)[C@H]2O[C@@](O)(C(=O)C(=O)N3CCCC[C@H]3C(=O)O[C@H](/C(C)=C/[C@@H]3CC[C@@H](O)[C@H](OC)C3)[C@H](C)[C@@H](O)CC1=O)[C@H](C)C[C@@H]2OC [ASCOMYCIN]
rIC50 [1]: 1.7 | rIC50 [2]: 1.9 | rIC50 [3]: 0.9

CC[C@@H]1/C=C(\C)C[C@H](C)C[C@H](OC)[C@H]2O[C@@](O)(C(=O)C(=O)N3CCCC[C@H]3C(=O)O[C@H](/C(C)=C/[C@@H]3CC[C@@H](OC(=S)NC(=O)C[C@@H]4OC(C)(C)OC4=O)[C@H](OC)C3)[C@H](C)[C@@H](O)CC1=O)[C@H](C)C[C@@H]2OC
rIC50 [1]: 12 | rIC50 [2]: 12 | rIC50 [3]: 0.9

CC[C@@H]1/C=C(\C)C[C@H](C)C[C@H](OC)[C@H]2O[C@@](O)(C(=O)C(=O)N3CCCC[C@H]3C(=O)O[C@H](/C(C)=C/[C@@H]3CC[C@@H](OC(=O)NNc4ccccc4)[C@H](OC)C3)[C@H](C)[C@@H](O)CC1=O)[C@H](C)C[C@@H]2OC
rIC50 [1]: 0.7 | rIC50 [2]: 2.5 | rIC50 [3]: 1.5

CC[C@@H]1/C=C(\C)C[C@H](C)C[C@H](OC)[C@H]2O[C@@](O)(C(=O)C(=O)N3CCCC[C@H]3C(=O)O[C@H](/C(C)=C/[C@@H]3CC[C@@H](OC(=S)NC(=O)c4ccccc4)[C@H](OC)C3)[C@H](C)[C@@H](O)CC1=O)[C@H](C)C[C@@H]2OC
rIC50 [1]: 3.4 | rIC50 [2]: 11 | rIC50 [3]: 6.3

CC[C@@H]1/C=C(\C)C[C@H](C)C[C@H](OC)[C@H]2O[C@@](O)(C(=O)C(=O)N3CCCC[C@H]3C(=O)O[C@H](/C(C)=C/[C@@H]3CC[C@@H](OC(=S)NC(=O)CCC(=O)OC)[C@H](OC)C3)[C@H](C)[C@@H](O)CC1=O)[C@H](C)C[C@@H]2OC
rIC50 [1]: 4.6 | rIC50 [2]: 19 | rIC50 [3]: 1.6

CC[C@@H]1/C=C(\C)C[C@H](C)C[C@H](OC)[C@H]2O[C@@](O)(C(=O)C(=O)N3CCCC[C@H]3C(=O)O[C@H](/C(C)=C/[C@@H]3CC[C@@H](OC(=S)NC(=O)c4ccc5ccccc5c4)[C@H](OC)C3)[C@H](C)[C@@H](O)CC1=O)[C@H](C)C[C@@H]2OC
rIC50 [1]: 6.5 | rIC50 [2]: 15 | rIC50 [3]: 6.6

CC[C@@H]1/C=C(\C)C[C@H](C)C[C@H](OC)[C@H]2O[C@@](O)(C(=O)C(=O)N3CCCC[C@H]3C(=O)O[C@H](/C(C)=C/[C@@H]3CC[C@@H](OC(=S)NC(=O)c4ccco4)[C@H](OC)C3)[C@H](C)[C@@H](O)CC1=O)[C@H](C)C[C@@H]2OC
rIC50 [1]: 3.5 | rIC50 [2]: 7.6 | rIC50 [3]: 3.4

CC[C@@H]1/C=C(\C)C[C@H](C)C[C@H](OC)[C@H]2O[C@@](O)(C(=O)C(=O)N3CCCC[C@H]3C(=O)O[C@H](/C(C)=C/[C@@H]3CC[C@@H](OC(=S)NC(=O)c4ccc(C(=O)OC)cc4)[C@H](OC)C3)[C@H](C)[C@@H](O)CC1=O)[C@H](C)C[C@@H]2OC
rIC50 [1]: 9 | rIC50 [2]: 8.4 | rIC50 [3]: 7.3

C=CC[C@@H]1/C=C(\C)C[C@H](C)C[C@H](OC)[C@H]2O[C@@](O)(C(=O)C(=O)N3CCCC[C@H]3C(=O)O[C@H](/C(C)=C/[C@@H]3CC[C@@H](O)[C@H](OC)C3)[C@H](C)[C@@H](O)CC1=O)[C@H](C)C[C@@H]2OC [TACROLIMUS ANHYDROUS]
rIC50 [1]: 1 | rIC50 [2]: 1 | rIC50 [3]: 1

CC[C@@H]1/C=C(\C)C[C@H](C)C[C@H](OC)[C@H]2O[C@@](O)(C(=O)C(=O)N3CCCC[C@H]3C(=O)O[C@H](/C(C)=C/[C@@H]3CC[C@@H](OC(=S)N(C)C(=O)CCC(=O)OC)[C@H](OC)C3)[C@H](C)[C@@H](O)CC1=O)[C@H](C)C[C@@H]2OC
rIC50 [1]: 6.9 | rIC50 [2]: 36 | rIC50 [3]: 2.7

CC[C@@H]1/C=C(\C)C[C@H](C)C[C@H](OC)[C@H]2O[C@@](O)(C(=O)C(=O)N3CCCC[C@H]3C(=O)O[C@H](/C(C)=C/[C@@H]3CC[C@@H](OC(=O)NC(=O)c4ccccc4)[C@H](OC)C3)[C@H](C)[C@@H](O)CC1=O)[C@H](C)C[C@@H]2OC
rIC50 [1]: 1.2 | rIC50 [2]: 2.9 | rIC50 [3]: 1.3
